In a melting point compilation (Tetko et al.; mined from patent text by program, amines drawn as free bases though some values may be those of a salt):

| melting point [°C] | Compound |
| --- | --- |
| 332 | O=C(NN=CC=Cc1ccc([N+](=O)[O-])o1)c1cn2ccsc2n1 |
| 288 to 291 | O=c1c([N+](=O)[O-])c[nH]c2sccc12 |
| 150 to 152 | CCCN1CC(c2ccc(F)cc2)=C(c2ccc(S(C)(=O)=O)cc2)C1=O |
| 158 to 160 | COc1cc(CN2CCN(C(=O)c3ccc4c(c3)C(=O)c3ccccc3C4=O)CC2)cc(OC)c1OC |
| 118 to 120 | COc1cc(Nc2c(C#N)cnc3cc(OCCCN4CCS(=O)(=O)CC4)c(OC)cc23)c(Cl)cc1Cl |
| 241 to 243 | CCCCOC(=O)c1cc(=O)c2c3c(cc(Cl)c2o1)-c1ccc(S(=O)(=O)O)cc1C(C)(C)O3 |
| 131 to 133 | CC(C)(C)c1ccc(S(=O)(=O)N2CCCC2=O)cc1 |
| 144 | CCCc1c(-c2ccccc2)nc2n1CCc1ccccc1C2OC1CCN(C)CC1 (centres undefined) |
| 231 to 233 | CCn1c([N+](=O)[O-])cnc1C=Cc1ccccc1 |
| 70 to 73 | BrCc1ccc(OCC(c2ccccc2)c2ccccc2)cc1 |
| 224 to 226 | COC(=O)C1=C(C)Nc2nccn2C1c1ccccn1 (centres undefined) |
| 99 to 100 | COc1cc(OC)nc(Cc2ccccc2NS(=O)(=O)C(F)(F)F)n1 |
| 129 to 131 | COc1cccc(Oc2ccccc2C(=O)O)c1 |
| > 220 | Cc1ccc(Cc2nc3cc(-c4ccc(-c5ccccc5)cc4)c(Cl)cc3[nH]2)cc1P(=O)(O)O |
| 153 to 155 | CCCOc1ccc(-c2ccc3c(c2)C=C(C(=O)OC)CCS3(=O)=O)cc1 |
| 64 to 68 | CCCCc1c(C(=O)N(C)Cc2ccc3c(Br)c(OCC(Cc4ccccc4)C(=O)O)ccc3c2)oc2ccccc12 (centres undefined) |
| 121 | C#CCNC(=O)N1CC(c2cccc(C(F)(F)F)c2)C1 |
| 132 to 136 | O=C(c1ccc(Cl)cc1)N(c1ccccc1)c1ccc(OCc2ccccc2)cc1 |
| 169 to 171 | CCCCc1ncc(C=C2C(=O)Nc3ccccc32)n1Cc1ccc(C(=O)OCC)cc1 |
| 128 to 129 | O=C1NC(=O)C(Sc2ccc3ccccc3c2Br)S1 (centres undefined) |
| 113 | CC(C)(C)N1CCN(Cc2ccc([N+](=O)[O-])cc2)S1(=O)=O |
| 101 to 103 | CCCOc1c(C)cc(Cl)c2c(=O)c3ccccc3sc12 |
| 92 to 94 | FC(F)(F)c1cc(C(F)(F)F)n(-c2ccc(NCc3ccncc3)cc2)n1 |

| melting point [°C] | Compound |
| --- | --- |
| 160 to 162 | O=C(O)CC1ON(C(=O)OCc2ccccc2)C(=O)C1N1C(=O)c2ccccc2C1=O (centres undefined) |
| 235 to 237 | COc1cc2nc(N)nc(-c3c(Br)cc(C)cc3Br)c2cc1OC |
| 186 | CN(C)CCCOc1ccc(C=CC(=O)N2CCc3c([nH]c4ccccc34)C2c2ccc3c(c2)CCO3)cc1 (centres undefined) |
| 258 | CCc1ccc(-c2nc3ccccc3[nH]2)cc1 |
| 212 to 214 | COc1cc(-n2nc(C#N)cc2-c2ccc(S(C)(=O)=O)cc2)ccc1Br |
| 59 to 60 | CCOC(=O)c1c(C)nc(-c2ccccc2)nc1-c1cccc(C(F)(F)F)c1 |
| 273 to 278 | Cc1ccc(N2C(=O)C(O)=C(C(=O)c3ccc(C(C)C)cc3)C2c2ccc(F)cc2)nn1 (centres undefined) |
| 120 | CC(Oc1ccc([N+](=O)[O-])cc1F)c1c(Cl)cccc1Cl (centres undefined) |
| 62 to 63 | COC(=O)C#CC(=O)c1ccc(F)cc1 |
| 187 to 188 | O=C(Cn1cccc(OCc2ccccc2)c1=O)ON1C(=O)CCC1=O |
| 205 to 207 | CN1Cc2c(c3cc(CCN4CCN(c5nsc6ccccc56)CC4)ccc3[nH]c2=O)C1 |
| 118 to 120 | CC(O)c1ccc(-c2ccc(S(C)(=O)=O)cc2)o1 (centres undefined) |
| 165 to 167 | Cn1ncnc1COc1nc2c(cc1C(C)(C)C)nnn2-c1ccccc1 |
| 115 to 117 | N=C(Nc1cccc(NC(=O)C=Cc2ccccc2)c1)c1ccccc1 |
| 160 to 165 | CN(C)Cc1nc(C(=O)O)nn1-c1ccc(Cl)cc1C(=O)c1ccccc1 |
| > 300 | O=c1ccn(-c2cc3[nH]c(=O)c(=O)[nH]c3cc2[N+](=O)[O-])cc1Cl |
| 132 to 134 | CNc1scc(C)c1C(=O)c1ccccc1Cl |
| 100 to 102 | C#CCC(C1=Nc2cnccc2C(=O)C1Nc1ccccc1)N(CCCNC(=O)OCc1ccccc1)C(=O)c1cccc(Cl)c1F (centres undefined) |
| 207 to 210 | CCCc1nn(C)c2c(=O)[nH]c(Cc3cccc(N)c3)nc12 |
| 136 to 140 | CC(C)(C)OC(=O)N1CCN(c2ccc([N+](=O)[O-])cc2)CC1 |
| 32 | CCCCCCCC1(CCCCCCC)c2ccccc2-c2ccc(Br)cc21 |
| 72 to 73 | CN(C(=O)N(C)c1ccc(CCl)cc1)c1ccc(CCl)cc1 |
| 236 | Cc1cc(O)cc(-c2nn(CC#N)cc2-c2cc(NC[C@H](C)O)nc(-c3cccnc3)n2)c1 |

| melting point [°C] | Compound |
| --- | --- |
| 235 | O=C(N[C@H]1CC[C@H](CCN2CCN(c3nccc4c3OCC4)CC2)CC1)c1ccc(-c2cccnc2)cc1 |
| 213 to 215 | O=C(Nc1ccc(Cl)cc1)c1cc(Br)c2cccnc2c1O |
| 234 to 236 | O=c1[nH][nH]c(=O)n1-c1ccc(Cl)cc1 |
| 116 to 118 | O=C(O)CCC(CCCCNS(=O)(=O)c1ccc(Cl)cc1)CCCc1cccnc1 (centres undefined) |
| 160 to 162 | CCOC(=O)C1=C(C)NC(CS(=O)c2ccccc2)=C(C(=O)OCC)C1c1cccc([N+](=O)[O-])c1 (centres undefined) |
| 82 to 85 | CC(c1cccnc1)N(c1ccc(F)cc1)S(C)(=O)=O (centres undefined) |
| 123 to 125 | Cc1cccc(OS(=O)(=O)c2ccc(N3CCN(C)C3=O)cc2)c1 |
| 38 to 40 | CCCCCCCCCCCCc1nnn(CC(=O)OCC)n1 |
| 216 to 221 | CC(O)Cn1cnc2c(N)nc3ccccc3c21 (centres undefined) |
| 211 to 213 | Nc1cc(=O)nc(Nc2ccccc2)n1-c1ccc(Br)cc1 |
| 267 | CCCc1c2oc(C(=O)O)cc(=O)c2cc2c(=O)cc(N(C(C)=O)C(C)=O)oc12 |
| 109 to 110 | COc1cc(Cl)c(N)cc1C(=O)NCC1CCCO1 (centres undefined) |
| 243 to 245 | COc1ccc2c(c1Br)CCC1C(=O)NC(=O)C21 (centres undefined) |
| 106 | C#CCOC(=O)Cc1c(C)nn(-c2cnccc2C)c1-c1ccccc1 |
| 218 to 220 | CCC(O)c1cccc(S(N)(=O)=O)c1 (centres undefined) |
| 153 to 155 | CN(C)C(=O)CCSC(SCCC(=O)O)c1cccc(C=Cc2ccc3ccc(Cl)cc3n2)c1 (centres undefined) |
| 143 | C=Cc1ccc(CNc2ccc(Nc3ccccc3)cc2)cc1 |
| 254 to 256 | O=C(O)C1=CC=CC(C(=O)c2ccc(O)c(O)c2)(C(=O)c2ccc(O)c(O)c2)C1 |
| 127 to 128 | NC(=O)N(O)CC=Cc1cccc(F)c1Sc1ccc(F)cc1 |
| 159 to 161 | Nc1ccc(C#Cc2ccccc2)c(-c2cc(N)ccc2C#Cc2ccccc2)c1 |
| 122 to 123 | COc1ccc(S(=O)(=O)NCCc2ccc(C(C)=O)cc2)cc1 |

| Compound | melting point [°C] |
| --- | --- |
| O=C(NC1N=C(c2ccccc2F)c2ccccc2NC1=O)c1ccc(Cl)cc1 (racemic) | 258 to 259 |
| CC1(C)CCC(C)(C)c2cc(O)c(N)cc21 | 225 |
